From PubChem BioAssay AID292 (DTP/NCI, 2004) come the findings set out here.

For the assay, the system named is B6C3F1 mice, ip Sarcoma M5076, median survival T/C. As to the kind of experiment: NCI In Vivo Anticancer Drug Screen. Data for tumor model Sarcoma M5076 (intraperitoneal) in B6C3F1 mice. As to conditions: endpoint: median survival time, schedule: Q04DX004 (ip), higher = longer survival. The method, boiled down: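 Mice carrying the transplanted tumour received compound treatment. Survival was recorded, and each value is the treated-group measurement divided by that of the vehicle-dosed control group.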

[1] abbreviates: dose: 50.0 mg/kg/injection, vehicle: Klucel (hydroxypropylcellulose) (HPC).
The mark [2] stands for this setting: dose: 100.0 mg/kg/injection, vehicle: Klucel (hydroxypropylcellulose) (HPC).
Setting [3] is: dose: 200.0 mg/kg/injection, vehicle: Klucel (hydroxypropylcellulose) (HPC).
Setting [4] is: dose: 400.0 mg/kg/injection, vehicle: Klucel (hydroxypropylcellulose) (HPC).
Where [5] appears, read: dose: 50.0 mg/kg/injection, vehicle: saline with Tween-80.
Setting [6] is: dose: 100.0 mg/kg/injection, vehicle: saline with Tween-80.
Where [7] appears, read: dose: 200.0 mg/kg/injection, vehicle: saline with Tween-80.
Where [8] appears, read: dose: 400.0 mg/kg/injection, vehicle: saline with Tween-80.
Where [9] appears, read: dose: 25.0 mg/kg/injection, vehicle: saline with Tween-80.
Where [10] appears, read: dose: 800.0 mg/kg/injection, vehicle: saline with Tween-80.

Several values for one entry are separate records, joined by “and”; a condition that tells them apart may be missing. Equal entries are not always repeated. Toxic doses and inconclusive results are not listed.

On to `C=C1C(O)C2OC3(CCC(/C=C/C(C)C4CC5(C)SC5C5(OC(CC(C)(O)C(=O)O)CCC5O)O4)O3)CCC2OC1C(O)CC(C)C1OC2(CCCCO2)CCC1C` (centres undefined), for which the T/C runs as follows: (dose: 2.5 micrograms/kg/injection, vehicle: saline + alcohol) 101 % of control; (dose: 5.0 micrograms/kg/injection, vehicle: saline + alcohol) 96 % of control; (dose: 10.0 micrograms/kg/injection, vehicle: saline + alcohol) 99 % of control; (dose: 20.0 micrograms/kg/injection, vehicle: saline + alcohol) 95 % of control; (dose: 40.0 micrograms/kg/injection, vehicle: saline + alcohol) 95 % of control.
Turning to `O=C(Nc1ccc([N+](=O)[O-])cc1)C1C(=O)C(=O)N(c2ccc([N+](=O)[O-])cc2)C1=O` (centres undefined), the T/C reads like this: (dose: 50.0 mg/kg/injection, vehicle: Klucel + Tween-80) 96 % of control; (dose: 100.0 mg/kg/injection, vehicle: Klucel + Tween-80) 104 % of control; (dose: 200.0 mg/kg/injection, vehicle: Klucel + Tween-80) 92 % of control.
As to `COc1ccc(C2NC(=S)NC(=O)C2C#N)cc1OC` (centres undefined), the T/C under setting [1] is 95 % of control, the T/C under setting [2] is 100 % of control, the T/C under setting [3] is 106 % of control and the T/C under setting [4] is 105 % of control.
As to `N/C(=N/N=C/c1cc(Br)cc(Br)c1O)NO`, the T/C by setting is: (dose: 25.0 mg/kg/injection, vehicle: suspension in saline) 102 % of control; (dose: 50.0 mg/kg/injection, vehicle: suspension in saline) 98 % of control; (dose: 100.0 mg/kg/injection, vehicle: suspension in saline) 110 % of control.
With `COc1cc(C2CC(C)(O)Oc3cc4c(cc32)OCO4)cc(OC)c1OC` (centres undefined), under setting [5], the T/C was 115 % of control.
Turning to `N#Cc1c(-c2ccccc2)c(-c2ccccc2)nn(CC(=O)O)c1=O`, the T/C was 102 % of control (dose: 50.0 mg/kg/injection, vehicle: distilled water + Tween-80); 102 % of control (dose: 100.0 mg/kg/injection, vehicle: distilled water + Tween-80); 97 % of control (dose: 200.0 mg/kg/injection, vehicle: distilled water + Tween-80).
With `[N-]=[N+]=NCCOCn1ccc(=O)[nH]c1=O`, the T/C by setting is: (dose: 37.5 mg/kg/injection, vehicle: suspension in saline) 102 % of control; (dose: 75.0 mg/kg/injection, vehicle: suspension in saline) 107 % of control; (dose: 150.0 mg/kg/injection, vehicle: suspension in saline) 109 % of control; (dose: 300.0 mg/kg/injection, vehicle: suspension in saline) 103 % of control; (dose: 600.0 mg/kg/injection, vehicle: suspension in saline) 98 % of control.
Take `ClC1(Cl)Cc2ccccc21`: the T/C reads like this: under setting [5], 103 % of control; under setting [6], 114 % of control; under setting [7], 92 % of control; under setting [8], 87 % of control.
As to `COC1C(N)C(OC2C(Oc3cccc4c(O)c5c(=O)oc6ccc(C)c7c(=O)oc(c34)c5c67)OC(C)C(O)C2(C)O)OC(C)C1O` (centres undefined), the T/C reads like this: (dose: 2.5 mg/kg/injection, vehicle: other) 153 % of control; (dose: 10.0 mg/kg/injection, vehicle: DMSO) 246 % of control; (dose: 10.0 mg/kg/injection, vehicle: other) 165 % of control.
On to `N#CC1C(=O)NC(=O)C(C#N)C1c1ccc(Cl)cc1Cl` (centres undefined), for which the T/C was 93 % of control under setting [1], 95 % of control under setting [2], 100 % of control under setting [3] and 96 % of control under setting [4].
With `Oc1c(Cl)cc(Cl)cc1C1Nc2ccccc2-n2cccc21` (centres undefined), the T/C reads like this: (dose: 12.5 mg/kg/injection, vehicle: saline with Tween-80) 90 % of control; under setting [9], 88 % of control; under setting [5], 86 % of control and 92 % of control; under setting [8], 87 % of control; under setting [10], 91 % of control.
Regarding `CC1=CC(=NN=c2cc(C)n([O-])c(C)c2)C=C(C)[N+]1=O`, the T/C under setting [6] is 122 % of control, the T/C under setting [7] was 121 % of control and the T/C under setting [8] was 98 % of control.
Regarding `Cc1cc2nncn2c2nnnn12`, the T/C is 101 % of control (dose: 12.5 mg/kg/injection, vehicle: water); 98 % of control (dose: 25.0 mg/kg/injection, vehicle: water); 95 % of control (dose: 50.0 mg/kg/injection, vehicle: water); 101 % of control (dose: 100.0 mg/kg/injection, vehicle: water); 98 % of control (dose: 200.0 mg/kg/injection, vehicle: water).
In the case of `Nc1nc(N)c2c(ccc3c2ccn3Cc2cccc([N+](=O)[O-])c2)n1`, the T/C (dose: 2.38 mg/kg/injection, vehicle: saline with Tween-80) was 98 % of control and 109 % of control; the T/C (dose: 4.69 mg/kg/injection, vehicle: saline with Tween-80) was 117 % of control; the T/C (dose: 4.75 mg/kg/injection, vehicle: saline with Tween-80) was 115 % of control; the T/C (dose: 9.38 mg/kg/injection, vehicle: saline with Tween-80) is 121 % of control; the T/C (dose: 9.5 mg/kg/injection, vehicle: saline with Tween-80) was 118 % of control; the T/C (dose: 38.0 mg/kg/injection, vehicle: saline with Tween-80) is 153 % of control and 155 % of control.
On to `Nc1ncc(C2OC(CO)C(O)C2O)c(=O)[nH]1` (centres undefined), for which the T/C (dose: 25.0 mg/kg/injection, vehicle: saline) is 106 % of control; the T/C (dose: 50.0 mg/kg/injection, vehicle: saline) is 104 % of control; the T/C (dose: 100.0 mg/kg/injection, vehicle: saline) is 103 % of control; the T/C (dose: 200.0 mg/kg/injection, vehicle: saline) is 96 % of control; the T/C (dose: 400.0 mg/kg/injection, vehicle: saline) was 100 % of control.
Consider `O=C(Nc1ccccc1CCl)Nc1ccccc1CCl`, for which the T/C reads like this: under setting [5], 107 % of control; under setting [6], 102 % of control and 110 % of control; under setting [7], 109 % of control and 114 % of control; under setting [10], 123 % of control.
For the molecule `CC(C)(C)c1ccc(C(=O)N2CCOC23CCCCC3)cc1`, the T/C is, setting by setting: under setting [5], 101 % of control and 103 % of control; under setting [6], 93 % of control and 103 % of control; under setting [7], 97 % of control and 98 % of control; under setting [8], 91 % of control and 100 % of control; under setting [10], 89 % of control and 93 % of control.
With `CCCC1CCC(=C2C(=O)CCC2=O)O1` (centres undefined), the T/C reads like this: under setting [9], 101 % of control; under setting [5], 95 % of control; under setting [6], 96 % of control.
In the case of `CC1(C)CC(OS(C)(=O)=O)CC(C)(C)N1O`, the T/C is 99 % of control (dose: 18.75 mg/kg/injection, vehicle: Klucel (hydroxypropylcellulose) (HPC)); 100 % of control (dose: 37.5 mg/kg/injection, vehicle: Klucel (hydroxypropylcellulose) (HPC)); 102 % of control (dose: 75.0 mg/kg/injection, vehicle: Klucel (hydroxypropylcellulose) (HPC)); 102 % of control (dose: 150.0 mg/kg/injection, vehicle: Klucel (hydroxypropylcellulose) (HPC)).
For `COc1ccc2nc(C)cc(N/N=C/c3cccnc3)c2c1`, the T/C was 104 % of control (dose: 12.5 mg/kg/injection, vehicle: Klucel (hydroxypropylcellulose) (HPC)); 114 % of control (dose: 25.0 mg/kg/injection, vehicle: Klucel (hydroxypropylcellulose) (HPC)); 116 % of control under setting [1]; 117 % of control under setting [2].
